Where only a bound is given, the exact number is not on record here.

Test [1] deals with T1, HiBit-BRM fusion protein (Homo sapiens, UniProt P51531).
T1 construct: expressed in transfected cells
As to the kind of experiment: HiBiT-BRM cell-based degradation assay (Nano-Glo HiBiT Lytic Detection). To be noted: stable HeLa cell line expressing HiBiT-BRM, 24 h incubation; for BRM HiBit Degradation Maximum (%): top dose 30 μM; for DC50: read-out: BRM HiBit Degradation IC50. In a few lines:
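HeLa cells stably expressing HiBiT-BRM were dosed with compounds (10-point 3-fold dilutions, 30 μM final top dose, duplicate) for 24 h. HiBiT signal was read by lytic LgBiT complementation luminescence. Percent degradation was normalised to DMSO (high control) and 2 μM of a reference BRM/BRG1 degrader (low control).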

Test [2] concerns the target T2, HiBit-BRG1 fusion protein (Homo sapiens, UniProt P51532).
T2 construct: expressed in transfected cells
Description: HiBiT-BRG1 cell-based degradation assay (Nano-Glo HiBiT Lytic Detection). The following applies: stable HeLa cell line expressing HiBit-BRG1 and LgBit, 24 h incubation; for Dmax: top dose 30 μM, read-out: BRG1 HiBit Degradation Maximum (%); for DC50: read-out: BRMG1 HiBit Degradation IC50. An outline of the steps: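 HeLa cells stably expressing HiBiT-BRG1 and LgBiT treated 24 h with 10-point 3-fold dilutions (top 30 μM, duplicate). Luminescence read after Nano-Glo HiBiT lytic reagent; % degradation relative to DMSO (high control) and 2 μM reference BRM/BRG1 degrader (low control).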
In general terms: HiBiT is a short tag that completes a luciferase, so light tracks the accessible tagged protein.

T1 sequence (P51531 whole entry, the tested form may be a part): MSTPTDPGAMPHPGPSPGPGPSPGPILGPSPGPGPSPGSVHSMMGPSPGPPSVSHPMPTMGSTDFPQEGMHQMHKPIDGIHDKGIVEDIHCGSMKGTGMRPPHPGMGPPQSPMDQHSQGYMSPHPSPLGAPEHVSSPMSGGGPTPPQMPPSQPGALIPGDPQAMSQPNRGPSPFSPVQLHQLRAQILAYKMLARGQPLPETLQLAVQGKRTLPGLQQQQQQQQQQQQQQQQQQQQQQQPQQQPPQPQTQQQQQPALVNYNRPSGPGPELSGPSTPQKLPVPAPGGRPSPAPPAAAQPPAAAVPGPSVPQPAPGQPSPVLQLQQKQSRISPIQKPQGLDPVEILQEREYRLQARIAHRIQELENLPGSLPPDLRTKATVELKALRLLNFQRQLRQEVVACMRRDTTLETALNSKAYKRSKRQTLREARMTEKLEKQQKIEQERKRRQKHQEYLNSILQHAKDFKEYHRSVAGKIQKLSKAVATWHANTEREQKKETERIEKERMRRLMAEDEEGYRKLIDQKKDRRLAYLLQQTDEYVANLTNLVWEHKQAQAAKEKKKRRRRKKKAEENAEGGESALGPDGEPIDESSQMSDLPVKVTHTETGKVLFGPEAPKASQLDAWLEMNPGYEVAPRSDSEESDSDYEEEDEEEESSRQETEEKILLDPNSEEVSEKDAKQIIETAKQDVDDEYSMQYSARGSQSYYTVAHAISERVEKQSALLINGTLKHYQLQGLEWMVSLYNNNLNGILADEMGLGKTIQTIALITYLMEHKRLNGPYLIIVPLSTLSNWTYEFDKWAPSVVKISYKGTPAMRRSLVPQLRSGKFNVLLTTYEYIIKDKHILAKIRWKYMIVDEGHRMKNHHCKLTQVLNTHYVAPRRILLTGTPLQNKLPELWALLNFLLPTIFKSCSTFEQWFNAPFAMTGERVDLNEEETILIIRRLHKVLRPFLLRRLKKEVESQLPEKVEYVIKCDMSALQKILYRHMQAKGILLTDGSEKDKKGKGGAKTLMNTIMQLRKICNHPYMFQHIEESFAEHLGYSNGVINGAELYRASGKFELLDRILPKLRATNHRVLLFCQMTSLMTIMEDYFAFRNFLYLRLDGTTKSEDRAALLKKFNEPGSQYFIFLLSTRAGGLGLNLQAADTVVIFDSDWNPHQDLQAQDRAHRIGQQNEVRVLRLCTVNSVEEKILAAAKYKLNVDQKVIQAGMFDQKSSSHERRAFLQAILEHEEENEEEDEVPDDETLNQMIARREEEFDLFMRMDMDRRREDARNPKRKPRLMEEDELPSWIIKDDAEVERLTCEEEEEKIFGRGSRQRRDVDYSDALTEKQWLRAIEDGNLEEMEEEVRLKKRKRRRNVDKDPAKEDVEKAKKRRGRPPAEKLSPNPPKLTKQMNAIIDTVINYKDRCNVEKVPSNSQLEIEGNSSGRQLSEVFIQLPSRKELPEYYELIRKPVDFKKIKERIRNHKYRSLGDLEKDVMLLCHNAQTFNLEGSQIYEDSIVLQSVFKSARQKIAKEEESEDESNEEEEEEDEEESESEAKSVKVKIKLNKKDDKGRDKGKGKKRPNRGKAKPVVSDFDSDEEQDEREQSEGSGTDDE
T2 sequence (P51532 whole entry, the tested form may be a part): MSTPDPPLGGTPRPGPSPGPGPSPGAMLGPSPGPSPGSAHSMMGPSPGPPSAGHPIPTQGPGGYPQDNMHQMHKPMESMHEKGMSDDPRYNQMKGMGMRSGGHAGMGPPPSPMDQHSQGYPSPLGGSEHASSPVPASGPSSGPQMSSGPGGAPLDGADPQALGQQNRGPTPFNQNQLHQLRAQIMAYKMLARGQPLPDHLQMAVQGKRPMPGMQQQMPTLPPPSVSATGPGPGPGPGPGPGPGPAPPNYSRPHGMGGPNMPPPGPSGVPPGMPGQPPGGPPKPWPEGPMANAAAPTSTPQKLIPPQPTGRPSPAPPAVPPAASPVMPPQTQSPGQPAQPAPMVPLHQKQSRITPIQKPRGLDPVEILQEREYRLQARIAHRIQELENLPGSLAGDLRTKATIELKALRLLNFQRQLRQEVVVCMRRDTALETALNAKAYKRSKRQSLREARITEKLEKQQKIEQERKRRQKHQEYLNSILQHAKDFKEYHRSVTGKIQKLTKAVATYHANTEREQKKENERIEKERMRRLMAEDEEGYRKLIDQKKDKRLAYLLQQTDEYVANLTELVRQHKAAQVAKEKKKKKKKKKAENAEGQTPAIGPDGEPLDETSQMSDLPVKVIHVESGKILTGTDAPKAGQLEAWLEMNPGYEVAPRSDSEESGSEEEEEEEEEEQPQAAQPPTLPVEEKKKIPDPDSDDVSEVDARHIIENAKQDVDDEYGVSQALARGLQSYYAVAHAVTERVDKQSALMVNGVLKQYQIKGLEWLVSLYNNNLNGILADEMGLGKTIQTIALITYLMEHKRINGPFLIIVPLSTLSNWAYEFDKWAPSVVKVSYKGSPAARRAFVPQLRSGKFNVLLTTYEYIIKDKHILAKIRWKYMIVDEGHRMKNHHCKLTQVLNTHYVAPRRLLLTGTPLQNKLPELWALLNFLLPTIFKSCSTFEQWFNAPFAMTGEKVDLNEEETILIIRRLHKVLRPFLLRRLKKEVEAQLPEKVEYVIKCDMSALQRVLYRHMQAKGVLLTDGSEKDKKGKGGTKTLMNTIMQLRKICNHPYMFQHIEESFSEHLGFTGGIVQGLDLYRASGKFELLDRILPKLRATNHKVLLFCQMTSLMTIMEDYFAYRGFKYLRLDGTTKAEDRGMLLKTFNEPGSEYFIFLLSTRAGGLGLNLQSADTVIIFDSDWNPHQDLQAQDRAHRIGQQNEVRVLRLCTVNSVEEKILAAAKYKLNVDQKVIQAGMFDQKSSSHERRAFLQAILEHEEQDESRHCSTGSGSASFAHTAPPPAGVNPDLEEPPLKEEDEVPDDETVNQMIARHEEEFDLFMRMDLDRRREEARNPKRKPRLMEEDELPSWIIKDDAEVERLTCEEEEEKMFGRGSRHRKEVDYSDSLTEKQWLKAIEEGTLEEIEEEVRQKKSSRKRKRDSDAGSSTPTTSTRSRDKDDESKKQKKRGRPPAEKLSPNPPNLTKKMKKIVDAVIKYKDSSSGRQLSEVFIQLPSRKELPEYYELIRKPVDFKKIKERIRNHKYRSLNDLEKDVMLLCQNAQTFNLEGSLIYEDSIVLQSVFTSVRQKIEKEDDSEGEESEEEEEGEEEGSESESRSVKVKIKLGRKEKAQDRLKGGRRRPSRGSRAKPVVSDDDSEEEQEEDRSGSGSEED

Turning to `Cc1ncsc1-c1ccc([C@H](C)NC(=O)[C@@H]2C[C@@H](O)CN2C(=O)[C@@H](c2cc(OCCN3C[C@H]4C[C@@H](C3)[C@@H]4c3cc4cc(-c5ccccc5O)nnc4s3)no2)C(C)C)cc1` [Compound 71, (2S,4R)-4-hydroxy-N-[(1S)-1-[4-(4-methyl-1,3-thiazol-5-yl)phenyl]ethyl]-1-[(2R)-3-methyl-2-(3-{2-[(1R,5S,6r)-6-[3-(2-hydroxyphenyl)thieno[2,3-c]pyridazin-6-yl]-3-azabicyclo[3.1.1]heptan-3-yl]ethoxy}-1,2-oxazol-5-yl)butanoyl]pyrrolidine-2-carboxamide], in test [1], the “BRM HiBit Degradation Maximum (%)” value is listed as “A (“A” indicates maximum degradation ≥ 75%)” and the DC50 was no less than 0.01 µM. In addition, in test [2], the Dmax is less than 50% and the DC50 is no less than 1 µM.

In the case of `Cc1ncsc1-c1ccc([C@H](C)NC(=O)[C@@H]2C[C@@H](O)CN2C(=O)[C@@H](c2cc(N3CCC(C(=O)N4CC(c5cc6cc(-c7ccccc7O)nnc6s5)C4)CC3)no2)C(C)C)cc1` [Compound 5, (2S,4R)-4-hydroxy-1-((R)-2-(3-(4-(3-(3-(2-hydroxyphenyl)thieno[2,3-c]pyridazin-6-yl)azetidine-1-carbonyl)piperidin-1-yl)isoxazol-5-yl)-3-methylbutanoyl)-N—((S)-1-(4-(4-methylthiazol-5-yl)phenyl)ethyl)pyrrolidine-2-carboxamide], in test [1], the “BRM HiBit Degradation Maximum (%)” value is on record as “A (“A” indicates maximum degradation ≥ 75%)” and the DC50 was no less than 0.01 µM. Further, in test [2], the Dmax is less than 50% and the DC50 was no less than 1 µM.

For `Cc1ncsc1-c1ccc([C@H](C)NC(=O)[C@@H]2C[C@@H](O)CN2C(=O)[C@@H](c2cc(OCCN3C[C@@H]4[C@H](C3)[C@H]4c3c(C)sc4nnc(-c5ccccc5O)cc34)no2)C(C)C)cc1` [Compound 21], in test [1], the “BRM HiBit Degradation Maximum (%)” value is “C (“C” indicates maximum degradation < 50%)” and the DC50 was no less than 1 µM. In test [2], the Dmax is less than 50% and the DC50 is no less than 1 µM.

Take `Cc1ncsc1-c1ccc([C@H](C)NC(=O)[C@@H]2C[C@@H](O)CN2C(=O)[C@@H](c2cc(N3CCN(C(=O)[C@@H]4CCc5sc6nnc(-c7ccccc7O)cc6c5C4)CC3)no2)C(C)C)cc1` (single isomer, unassigned) [Compound 53]: in test [1], the “BRM HiBit Degradation Maximum (%)” value is listed as “C (“C” indicates maximum degradation < 50%)” and the DC50 was no less than 1 µM. In addition, in test [2], the Dmax is less than 50% and the DC50 was no less than 1 µM.

Turning to `Cc1ncsc1-c1ccc([C@H](C)NC(=O)[C@@H]2C[C@@H](O)CN2C(=O)[C@@H](c2cc(O[C@@H]3CC[C@@H]3N3CCC(c4sc5nnc(-c6ccccc6O)cc5c4C)CC3)no2)C(C)C)cc1` [Compound 35, (2S,4R)-4-hydroxy-1-[(2R)-2-{3-[(1R,2S)-2-{4-[3-(2-hydroxyphenyl)-5-methylthieno[2,3-c]pyridazin-6-yl]piperidin-1-yl}cyclobutoxy]-1,2-oxazol-5-yl}-3-methylbutanoyl]-N-[(1S)-1-[4-(4-methyl-1,3-thiazol-5-yl)phenyl]ethyl]pyrrolidine-2-carboxamide], in test [1], the “BRM HiBit Degradation Maximum (%)” value is listed as “A (“A” indicates maximum degradation ≥ 75%)” and the DC50 was no less than 0.01 µM. In test [2], the Dmax is less than 50% and the DC50 is no less than 1 µM.

As to `Cc1ncsc1-c1ccc([C@H](C)NC(=O)[C@@H]2C[C@@H](O)CN2C(=O)[C@@H](NC(=O)[C@H]2CC[C@H](c3sc4nnc(-c5ccccc5O)cc4c3C)CC2)C(C)(C)C)cc1` [Compound 51, (2S,4R)-4-hydroxy-1-((S)-2-((1r,4S)-4-(3-(2-hydroxyphenyl)-5-methylthieno[2,3-c]pyridazin-6-yl)cyclohexane-1-carboxamido)-3,3-dimethylbutanoyl)-N-((S)-1-(4-(4-methylthiazol-5-yl)phenyl)ethyl)pyrrolidine-2-carboxamide], in test [1], the “BRM HiBit Degradation Maximum (%)” value is listed as “C (“C” indicates maximum degradation < 50%)” and the DC50 is no less than 1 µM. Further, in test [2], the Dmax is less than 50% and the DC50 was no less than 1 µM.

The values are drawn from patent publication US20240376121A1, “COMPOUNDS AND USES THEREOF” (Foghorn Therapeutics Inc., priority 2021, published 2024).
